Assays:
large crabgrass [1] = assay: Test A pre-/postemergence herbicide test; assay type: in vivo, Digitaria sanguinalis
How it was run: (§1)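 Sandy loam soil given preemergence directed spray; plants at 2 to 10 cm, one- to two-leaf stage, sprayed to runoff postemergence, compounds in non-phytotoxic solvent with surfactant. Injury rated visually versus untreated controls after about ten greenhouse days, 0 (no effect) to 100 (complete control); dash means not tested.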

blackgrass = assay: Test B postemergence herbicide test; assay type: in vivo, Alopecurus myosuroides; settings: postemergence, visual rating, scale 0 (no effect) to 100 (complete control)
How it was run: (§2)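 Paddy species grown to the 2-leaf stage under flooding; blackgrass sprayed postemergence at 2–18 cm (1- to 4-leaf stage). Plants kept in a greenhouse for 13 to 15 days, then visually rated against controls on 0 (no effect) to 100 (complete control).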

giant foxtail [2] = assay: Test B pre-/postemergence herbicide test; assay type: in vivo, Setaria faberi; settings: for Plant response rating, Foxtail, Giant: preemergence; for Foxtail, Giant plant response rating: postemergence, visual rating, scale 0 (no effect) to 100 (complete control)
How it was run: (§3)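 Formulation: non-phytotoxic solvent mix with surfactant. Timing: preemergence on seed and postemergence on 2–18 cm plants, applied concurrently. Readout after 13–15 d greenhouse: visual 0–100 control rating against controls.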

wheat = assay: Test B postemergence herbicide test; assay type: in vivo, Triticum aestivum; design: key to Wheat plant response rating: 0 = no effect, 100 = complete control; settings: postemergence, visual rating, scale 0 (no effect) to 100 (complete control)
How it was run: (§4)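 Scale 0–100: zero equals no visible effect, 100 complete control, judged by eye relative to controls. Timing: 13 to 15 days in greenhouse post-treatment. Growth stage at spraying: two leaves (paddy) or one to four leaves, 2–18 cm (postemergence).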

lambsquarters = assay: Test B pre-/postemergence herbicide test; assay type: in vivo, Chenopodium album; settings: for Plant response rating, Lambsquarters: preemergence; for Lambsquarters plant response rating: postemergence, visual rating, scale 0 (no effect) to 100 (complete control)
How it was run: as §3

rice [3] = assay: Test B pre-/postemergence herbicide test; assay type: in vivo, Oryza sativa; settings: 500 g ai/ha; visual rating 0-100, 0 no effect, 100 complete control; preemergence
How it was run: as §3

barnyardgrass [4] = assay: Test A pre-/postemergence herbicide test; assay type: in vivo, Echinochloa crus-galli
How it was run: as §1

large crabgrass [5] = assay: Test B pre-/postemergence herbicide test; assay type: in vivo, Digitaria sanguinalis; settings: for Plant response rating, Crabgrass, Large: preemergence; for Crabgrass, Large plant response rating: postemergence, visual rating, scale 0 (no effect) to 100 (complete control)
How it was run: as §3

rice [6] = assay: Test B flooded paddy test; assay type: in vivo, Oryza sativa; settings: 1000 g ai/ha, visual rating, scale 0 to 100 (0 no effect, 100 complete control), 13 to 15 days
How it was run: as §4

corn = assay: Test B pre-/postemergence herbicide test; assay type: in vivo, Zea mays; settings: for Plant response rating, Corn: preemergence; for Corn plant response rating: postemergence, visual rating, scale 0 (no effect) to 100 (complete control)
How it was run: as §3

pigweed = assay: Test B pre-/postemergence herbicide test; assay type: in vivo, Amaranthus retroflexus; settings: for Plant response rating, Pigweed: preemergence; for Pigweed plant response rating: postemergence, visual rating, scale 0 (no effect) to 100 (complete control)
How it was run: as §3

[7] = test system: small flower umbrella sedge; assay: Test B flooded paddy test; assay type: in vivo, Cyperus difformis; settings: 1000 g ai/ha, visual rating, scale 0 to 100 (0 no effect, 100 complete control), 13 to 15 days
How it was run: as §2

velvetleaf [8] = assay: Test A pre-/postemergence herbicide test; assay type: in vivo, Abutilon theophrasti
How it was run: as §1

velvetleaf [9] = assay: Test B pre-/postemergence herbicide test; assay type: in vivo, Abutilon theophrasti; settings: for Plant response rating, Velvetleaf: preemergence; for Velvetleaf plant response rating: postemergence, visual rating, scale 0 (no effect) to 100 (complete control)
How it was run: as §3

ducksalad = assay: Test B flooded paddy test; assay type: in vivo, Heteranthera limosa; settings: 1000 g ai/ha, visual rating, scale 0 to 100 (0 no effect, 100 complete control), 13 to 15 days
How it was run: as §2

redroot pigweed = assay: Test A pre-/postemergence herbicide test; assay type: in vivo, Amaranthus retroflexus
How it was run: as §1

Surinam grass = assay: Test B pre-/postemergence herbicide test; assay type: in vivo, Urochloa decumbens; settings: for Plant response rating, Surinam Grass: preemergence; for Surinam Grass plant response rating: postemergence, visual rating, scale 0 (no effect) to 100 (complete control)
How it was run: as §3

morningglory [10] = assay: Test B pre-/postemergence herbicide test; assay type: in vivo, Ipomoea coccinea; settings: for Plant response rating, Morningglory: preemergence; for Morningglory plant response rating: postemergence, visual rating, scale 0 (no effect) to 100 (complete control)
How it was run: (§5)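 Test chemicals in a non-phytotoxic solvent mixture with surfactant were applied preemergence to seeded species and postemergence to plants 2-18 cm tall (1- to 4-leaf stage); rice and barnyardgrass were also tested in a flooded paddy at the 2-leaf stage. Visual rating versus controls after 13-15 days in greenhouse, scale 0 (no effect) to 100 (complete control).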

cocklebur = assay: Test B pre-/postemergence herbicide test; assay type: in vivo, Xanthium strumarium; settings: for Plant response rating, Cocklebur: preemergence; for Cocklebur plant response rating: postemergence, visual rating, scale 0 (no effect) to 100 (complete control)
How it was run: as §5

wild oat = assay: Test B postemergence herbicide test; assay type: in vivo, Avena fatua; settings: postemergence, visual rating, scale 0 (no effect) to 100 (complete control)
How it was run: as §4

barnyardgrass [11] = assay: Test B pre-/postemergence herbicide test; assay type: in vivo, Echinochloa crus-galli; settings: for Plant response rating, Barnyardgrass: preemergence; for Barnyardgrass plant response rating: postemergence, visual rating, scale 0 (no effect) to 100 (complete control)
How it was run: as §5

morningglory [12] = assay: Test A pre-/postemergence herbicide test; assay type: in vivo, Ipomoea spp.
How it was run: as §1

barnyardgrass [13] = assay: Test B flooded paddy test; assay type: in vivo, Echinochloa crus-galli; settings: 1000 g ai/ha, visual rating, scale 0 to 100 (0 no effect, 100 complete control), 13 to 15 days
How it was run: as §2

giant foxtail [14] = assay: Test A pre-/postemergence herbicide test; assay type: in vivo, Setaria faberi
How it was run: as §1

[15] = Postemergence, 250 g ai/ha, 0 to 100 scale, 0 no effect, 100 complete control
[16] = Postemergence, 1000 g ai/ha, 0 to 100 scale, 0 no effect, 100 complete control
[17] = Preemergence, 1000 g ai/ha, visual rating, 0 to 100 scale (0 no effect, 100 complete control)
[18] = preemergence, 250 g ai/ha, visual injury, 0 to 100 scale (0 no effect, 100 complete control)
[19] = 500 g ai/ha, visual rating 0-100, 0 no effect, 100 complete control
[20] = 125 g ai/ha, 0 to 100 scale, 0 is no effect, 100 is complete control

In the case of `CC(C)(C)c1cc(C(=O)Nc2cccc(SC(F)(F)F)c2)n(CCF)n1` [Compound 132], the “Crabgrass, Large plant response rating” value (large crabgrass [1]; [15]) is reported as 20, the “Plant response rating, Crabgrass, Large” value (large crabgrass [1]; [16]) is reported as 25 and the “Crabgrass, Large plant response rating” value (large crabgrass [1]; [17]) is reported as 35. For the same compound, the “Crabgrass, Large plant response rating” value (large crabgrass [1]; [18]) was 20, the “Blackgrass plant response rating” value (blackgrass; 125 g ai/ha) was 10 and the “Blackgrass plant response rating” value (blackgrass; 500 g ai/ha) was 40. The “Plant response rating, Foxtail, Giant” value (giant foxtail [2]; [19]) was 80, the “Foxtail, Giant plant response rating” value (giant foxtail [2]; 125 g ai/ha) was 30 and the “Foxtail, Giant plant response rating” value (giant foxtail [2]; 500 g ai/ha) was 40. The “Plant response rating, Foxtail, Giant” value (giant foxtail [2]; [20]) was 30, the “Wheat plant response rating” value (wheat; 125 g ai/ha) was 10 and the “Wheat plant response rating” value (wheat; 500 g ai/ha) was 20. The “Plant response rating, Lambsquarters” value (lambsquarters; [19]) was 90, the “Lambsquarters plant response rating” value (lambsquarters; 125 g ai/ha) was 100 and the “Lambsquarters plant response rating” value (lambsquarters; 500 g ai/ha) was 100. The “Plant response rating, Lambsquarters” value (lambsquarters; [20]) was 60, the “Plant response rating, Rice” value (rice [3]) was 0 and the “Barnyardgrass plant response rating” value (barnyardgrass [4]; [15]) was 20. For the same compound, the “Plant response rating, Barnyardgrass” value (barnyardgrass [4]; [16]) was 30, the “Barnyardgrass plant response rating” value (barnyardgrass [4]; [17]) was 10 and the “Barnyardgrass plant response rating” value (barnyardgrass [4]; [18]) was 0. For the same compound, the “Plant response rating, Crabgrass, Large” value (large crabgrass [5]; [19]) was 100, the “Crabgrass, Large plant response rating” value (large crabgrass [5]; 125 g ai/ha) was 30 and the “Crabgrass, Large plant response rating” value (large crabgrass [5]; 500 g ai/ha) was 40. For the same compound, the “Plant response rating, Crabgrass, Large” value (large crabgrass [5]; [20]) was 90, the “Rice plant response rating” value (rice [6]) was 0 and the “Plant response rating, Corn” value (corn; [19]) was 10. For the same compound, the “Corn plant response rating” value (corn; 125 g ai/ha) was 20, the “Corn plant response rating” value (corn; 500 g ai/ha) was 20 and the “Plant response rating, Corn” value (corn; [20]) was 10. For the same compound, the “Plant response rating, Pigweed” value (pigweed; [19]) was 100, the “Pigweed plant response rating” value (pigweed; 125 g ai/ha) was 70 and the “Pigweed plant response rating” value (pigweed; 500 g ai/ha) was 90. The “Plant response rating, Pigweed” value (pigweed; [20]) was 100, the “Sedge, Umbrella plant response rating” value [7] was 40 and the “Velvetleaf plant response rating” value (velvetleaf [8]; [15]) was 20. The “Plant response rating, Velvetleaf” value (velvetleaf [8]; [16]) was 30, the “Velvetleaf plant response rating” value (velvetleaf [8]; [17]) was 20 and the “Velvetleaf plant response rating” value (velvetleaf [8]; [18]) was 15. The “Plant response rating, Velvetleaf” value (velvetleaf [9]; [19]) was 70, the “Velvetleaf plant response rating” value (velvetleaf [9]; 125 g ai/ha) was 60 and the “Velvetleaf plant response rating” value (velvetleaf [9]; 500 g ai/ha) was 60. For the same compound, the “Plant response rating, Velvetleaf” value (velvetleaf [9]; [20]) was 30, the “Ducksalad plant response rating” value (ducksalad) was 10 and the “Pigweed plant response rating” value (redroot pigweed; [15]) was 75. The “Plant response rating, Pigweed” value (redroot pigweed; [16]) was 65, the “Pigweed plant response rating” value (redroot pigweed; [17]) was 40 and the “Pigweed plant response rating” value (redroot pigweed; [18]) was 30. The “Plant response rating, Surinam Grass” value (Surinam grass; [19]) was 70, the “Surinam Grass plant response rating” value (Surinam grass; 125 g ai/ha) was 40 and the “Surinam Grass plant response rating” value (Surinam grass; 500 g ai/ha) was 60. The “Plant response rating, Surinam Grass” value (Surinam grass; [20]) was 40, the “Plant response rating, Morningglory” value (morningglory [10]; [19]) was 20 and the “Morningglory plant response rating” value (morningglory [10]; 125 g ai/ha) was 60. For the same compound, the “Morningglory plant response rating” value (morningglory [10]; 500 g ai/ha) was 70, the “Plant response rating, Morningglory” value (morningglory [10]; [20]) was 10 and the “Plant response rating, Cocklebur” value (cocklebur; [19]) was 0. For the same compound, the “Cocklebur plant response rating” value (cocklebur; 125 g ai/ha) was 90, the “Cocklebur plant response rating” value (cocklebur; 500 g ai/ha) was 90 and the “Plant response rating, Cocklebur” value (cocklebur; [20]) was 0. The “Oat, Wild plant response rating” value (wild oat; 125 g ai/ha) was 20, the “Oat, Wild plant response rating” value (wild oat; 500 g ai/ha) was 20 and the “Plant response rating, Barnyardgrass” value (barnyardgrass [11]; [19]) was 50. The “Barnyardgrass plant response rating” value (barnyardgrass [11]; 125 g ai/ha) was 50, the “Barnyardgrass plant response rating” value (barnyardgrass [11]; 500 g ai/ha) was 60 and the “Plant response rating, Barnyardgrass” value (barnyardgrass [11]; [20]) was 10. The “Morningglory plant response rating” value (morningglory [12]; [15]) was 10, the “Plant response rating, Morningglory” value (morningglory [12]; [16]) was 20 and the “Morningglory plant response rating” value (morningglory [12]; [17]) was 10. The “Morningglory plant response rating” value (morningglory [12]; [18]) was 5, the “Barnyardgrass plant response rating” value (barnyardgrass [13]) was 30 and the “Foxtail, Giant plant response rating” value (giant foxtail [14]; [15]) was 15. The “Plant response rating, Foxtail, Giant” value (giant foxtail [14]; [16]) was 20, the “Foxtail, Giant plant response rating” value (giant foxtail [14]; [17]) was 40 and the “Foxtail, Giant plant response rating” value (giant foxtail [14]; [18]) was 25.

From patent publication US20060069132A1, “Azolecarboxamide herbicides” (priority 2004, published 2006)
